Experimental data: patent US20180317487A1, “METHOD OF CONTROLLING GROWTH OF ALS-TOLERANT PLANTS” (ROTAM AGROCHEM INTERNATIONAL COMPANY LIMITED, priority 2015, published 2018)

Columns and labels:
ALS-tolerant plants = assay: Review of the spray test data, ALS-tolerant plants together; assay type: in vivo; conditions: review of the data of Tables 5 and 6
Source text: (§1) Seeds of normal wild variety and ALS-resistant variant of each of Stellaria media, Papaver rhoeas, Matricaria chamomilla and Matricaria inodora were sown in trays of peat-based compost placed in a glasshouse to allow germination. At the cotyledon stage, four evenly sized seedlings were transplanted into each of 9 cm diameter plastic pots containing loam soil mixed with 25% by volume horticultural silver sand and further blended with coarse grit in the ratio 3:1. The resulting potting medium was supplemented with Osmacote slow-release fertilizer (16:8:9+Mg) to provide 1.4 g per 0.35 L pot.
(§2) The formulations of each of Examples C1 to C11 and 1 to 16 were applied to the seedlings by spraying. Three replicate pots were used per treatment. Prior to spraying, the plants were watered overhead. To ensure the foliage was dry, water was not applied on the day of spraying, with the last overhead watering being the day before spraying. The herbicide formulations were made up with mains tap water. The laboratory track sprayer was set up with a Lurmark O1E80 Even spray nozzle to deliver 200±20 L/ha using gear 4 and a pressure of […] (30 psi). The application rates of the active ingredients are set out in Table 5 below.
(§3) Following spraying, the plants were returned to the glasshouse and the sprayed pots were arranged in three randomized blocks. The temperature of the glasshouse ranged from 12.2° C. to 16.1° C. by day and 10.9° C. to 13.3° C. at night. The relative humidity ranged from 75% to 101 %.
(§4) Throughout the experiment, the plants were watered to maintain the soil close to the field capacity. Following herbicide treatment, the plants were watered by sub-irrigation using individual plastic dishes for each pot to avoid any risk of cross contamination.
(§5) The visual percentage of control based on a 0-100 linear scale was assessed 21 days after treatment (DAT). The linear scale ranged from 0 (no effect) to 100 (dead plants).
(§6) In Table 6, ‘Obs’ indicates an observed result and ‘Exp’ indicates the result expected from applying the Colby equation, discussed above.

[1] = tested on: wild (non-tolerant) plants; assay: Review of the spray test data, wild plants together; assay type: in vivo; conditions: review of the data of Tables 5 and 6
Source text: as §1, §2, §3, §4, §5, §6

Compound: COc1cc(OC)nc(NC(=O)NS(=O)(=O)c2cc(CNS(C)(=O)=O)ccc2C(=O)O)n1 [Mesosulfuron]
- damage to / effect on ALS-tolerant plants (in words) (ALS-tolerant plants): little or no effect
- damage to wild (non-tolerant) plants (in words) [1]: significantly damaging

Compound: COc1cc(OC)nc(NC(=O)NS(=O)(=O)c2c(C(=O)O)c(Cl)nn2C)n1 [Halosulfuron]
- damage to / effect on ALS-tolerant plants (in words) (ALS-tolerant plants): little or no effect
- damage to wild (non-tolerant) plants (in words) [1]: significantly damaging

Compound: CCS(=O)(=O)c1cccnc1S(=O)(=O)NC(=O)Nc1nc(OC)cc(OC)n1 [Rimsulfuron]
- damage to / effect on ALS-tolerant plants (in words) (ALS-tolerant plants): little or no effect
- damage to wild (non-tolerant) plants (in words) [1]: significantly damaging

Compound: CCS(=O)(=O)c1nc2ccccn2c1S(=O)(=O)NC(=O)Nc1nc(OC)cc(OC)n1 [Sulfosulfuron]
- damage to / effect on ALS-tolerant plants (in words) (ALS-tolerant plants): little or no effect
- damage to wild (non-tolerant) plants (in words) [1]: significantly damaging

Compound: COc1nc(C)nc(N(C)C(=O)NS(=O)(=O)c2ccccc2C(=O)O)n1 [Tribenuron]
- damage to / effect on ALS-tolerant plants (in words) (ALS-tolerant plants): little or no effect
- damage to wild (non-tolerant) plants (in words) [1]: significantly damaging

Compound: COc1nc(C)nc(NC(=O)NS(=O)(=O)c2ccsc2C(=O)O)n1 [Thifensulfuron]
- damage to / effect on ALS-tolerant plants (in words) (ALS-tolerant plants): little or no effect
- damage to wild (non-tolerant) plants (in words) [1]: significantly damaging

Compound: COc1nc(C)nc(NC(=O)NS(=O)(=O)c2cc(I)ccc2C(=O)O)n1 [Iodosulfuron]
- damage to / effect on ALS-tolerant plants (in words) (ALS-tolerant plants): little or no effect
- damage to wild (non-tolerant) plants (in words) [1]: significantly damaging

Compound: COc1cc(OC)nc(NC(=O)NS(=O)(=O)c2ncccc2C(=O)N(C)C)n1 [Nicosulfuron]
- damage to / effect on ALS-tolerant plants (in words) (ALS-tolerant plants): little or no effect
- damage to wild (non-tolerant) plants (in words) [1]: significantly damaging

Compound: CSc1nnc(C(C)(C)C)c(=O)n1N [metribuzin, 4-amino-6-tert-butyl-4,5-dihydro-3-methylthio-1,2,4-triazin-5-one]
- damage to / effect on ALS-tolerant plants (in words) (ALS-tolerant plants): caused damage
- damage to wild (non-tolerant) plants (in words) [1]: caused damage

Compound: COc1cc(OC)nc(NC(=O)NS(=O)(=O)N(C)S(C)(=O)=O)n1 [Amidosulfuron]
- damage to / effect on ALS-tolerant plants (in words) (ALS-tolerant plants): little or no effect
- damage to wild (non-tolerant) plants (in words) [1]: significantly damaging

Compound: COc1nc(C)nc(=NC(=O)NS(=O)(=O)c2ccccc2C(=O)O)[nH]1 [Metsulfuron]
- damage to / effect on ALS-tolerant plants (in words) (ALS-tolerant plants): little or no effect
- damage to wild (non-tolerant) plants (in words) [1]: significantly damaging
